Patent US10179816B2, “Pharmaceutical compositions comprising an antibody which binds the human anti-Müllerian hormone receptor type II” (LABORATOIRE FRANCAIS DU FRACTIONNEMENT DES BIOTECHNOLOGIES, priority 2011, dated 2019)
Several values for one entry are separate records, joined by “and”; a condition that tells them apart may be missing. Equal entries are not always repeated. Entries after “also recorded” stand apart in the source; their conditions may differ. Where two headings read alike, the source gives them in different places.

How the values were obtained:
[1] = target: T1, human anti-Müllerian hormone type II receptor (AMHR-II) (Homo sapiens, UniProt Q16671); conditions: compared with unmutated humanized and chimeric 12G4; cited from earlier work
T1 sequence (Q16671 18-573): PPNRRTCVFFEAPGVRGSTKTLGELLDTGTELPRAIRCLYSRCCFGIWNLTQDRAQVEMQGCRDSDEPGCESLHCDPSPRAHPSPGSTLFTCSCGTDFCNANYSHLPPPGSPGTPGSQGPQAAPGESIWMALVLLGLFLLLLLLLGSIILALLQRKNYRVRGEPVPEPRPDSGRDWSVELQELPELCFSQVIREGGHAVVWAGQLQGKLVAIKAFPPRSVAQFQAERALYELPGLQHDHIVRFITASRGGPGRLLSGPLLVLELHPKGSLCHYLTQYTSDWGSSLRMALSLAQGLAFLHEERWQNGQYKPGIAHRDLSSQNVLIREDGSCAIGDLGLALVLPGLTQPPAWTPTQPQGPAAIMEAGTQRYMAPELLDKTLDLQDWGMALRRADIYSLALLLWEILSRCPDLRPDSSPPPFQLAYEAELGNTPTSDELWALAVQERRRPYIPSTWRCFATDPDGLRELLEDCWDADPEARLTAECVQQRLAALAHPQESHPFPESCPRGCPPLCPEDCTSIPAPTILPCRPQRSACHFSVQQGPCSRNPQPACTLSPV

[2] = system: Cov434-AMHRII Asc1a5 tumour cells (a cell line of human ovarian cancer); assay: Anti-tumour activity of 3C23K alone or with paclitaxel in Cov434-AMHRII Asc1a5 xenograft (tumour volume, T/C ratio, statistical analysis); conditions: for Individual tumour volume: individual mice;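 for all read-outs here: subcutaneous Cov434-AMHRII Asc1a5 xenografts in female Swiss nude mice, tumour volume from length×width×height/2 in mm^3, randomized D13, dosing from D14, 8 mice per group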
Procedure: Female Swiss nude mice (Harlan Laboratories) were injected subcutaneously (s.c.) with 7.10^6 cells of Cov434-AMHRII Asc1a5 (cell line of human ovarian cancer transfected with cDNA AMHRII) in Matrigel (1:1 ratio) under a volume of 150 μL on day 0 (D0).
The mice were randomized on D13, when the volume of the tumours was between 58 and 150 mm^3, and the treatments began on D14 (8 mice per group).
The tumours were usually measured twice weekly. Tumour volume (TV) was calculated using the following formula, in which the length corresponds to the largest of the tumour diameters, the width corresponds to the smallest of the tumour diameters and the tumour height: TV (mm^3)=(length×width×height)/2.
In addition, for each group, curves of tumour growth were plotted using the calculated mean tumour volumes or the median tumour volumes.
(§1) The animals were sacrificed when the tumour volumes reached 2000 mm^3 or for ethical reasons. The curves of mean values and median values as well as the statistical analyses were stopped when 20% of the mice in the group were dead.
In one experiment with 8 mice per group, the curves and analyses were stopped when fewer than 7 values per group had been obtained (7 mice alive).
The statistical differences between the different groups were analysed by ANOVA comparison using the Statgraphics centurion XV software.
The ANOVA table breaks down the variance into two components: an inter-group component and an intra-group component. The ratio F is the ratio of the inter-group estimate to the intra-group estimate. When the P value of test F is greater than or equal to 0.05, there is no statistically significant difference between the mean values of the two groups, with a confidence level of 95%. P values less than 0.05 indicate a significant difference between the mean values of the two groups with a confidence level of 95%.
A Kruskal-Wallis test was also carried out. When the P value is greater than or equal to 0.05, there is no statistically significant difference between the median of the two groups, with a confidence level of 95%. P values less than 0.05 indicate a significant difference between the medians of the two groups with a confidence level of 95%.
The treatment is initiated on day 14 after injection.

[3] = system: Cov434-AMHRII Asc1a5 tumour cells;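 note: control mice received NaCl solution, survival endpoint was euthanasia once tumour volume hit 2000 mm^3 or on ethical grounds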
Source text: A solution of NaCl was used as the control.
as §1

[4] = D13, contrast vs paclitaxel 15 mg/kg q7d4
[5] = D20, contrast vs paclitaxel 15 mg/kg q7d4
[6] = D24, contrast vs paclitaxel 15 mg/kg q7d4
[7] = D27, contrast vs paclitaxel 15 mg/kg q7d4
[8] = D31, contrast vs paclitaxel 15 mg/kg q7d4
[9] = D35, contrast vs paclitaxel 15 mg/kg q7d4
[10] = D41, contrast vs paclitaxel 15 mg/kg q7d4
[11] = Day 13, randomization, before treatment

## 3C23K: mutated humanized 12G4 monoclonal antibody binding AMHR-II, produced by the 3C23K clone; light chain SEQ ID NO: 11, heavy chain SEQ ID NO: 13
[1]
  Affinity for AMHR-II (in words): affinity far better than that of the unmutated humanized 12G4 antibody
[2]; D13, contrast vs control
  ANOVA F-ratio: 0.00
  Kruskal-Wallis Test: 0.00
[2]; [4]
  ANOVA F-ratio: 0.11
  Kruskal-Wallis Test: 0.03
[2]; D20, contrast vs control
  ANOVA F-ratio: 5.33
  Kruskal-Wallis Test: 4.44
[2]; [5]
  ANOVA F-ratio: 9.54
  Kruskal-Wallis Test: 6.39
[2]; D20 to D41
  Statistical analysis of tumour volume (in words): significant anti-tumour activity; also recorded: significantly different from that of paclitaxel in monotherapy
[2]; D24, contrast vs control
  ANOVA F-ratio: 9.83
  Kruskal-Wallis Test: 4.41
[2]; [6]
  ANOVA F-ratio: 8.53
  Kruskal-Wallis Test: 8.70
[2]; D27, contrast vs control
  ANOVA F-ratio: 8.21
  Kruskal-Wallis Test: 4.87
[2]; [7]
  ANOVA F-ratio: 8.92
  Kruskal-Wallis Test: 8.66
[2]; D31, contrast vs control
  ANOVA F-ratio: 10.00
  Kruskal-Wallis Test: 4.86
[2]; [8]
  ANOVA F-ratio: 8.01
  Kruskal-Wallis Test: 8.66
[2]; D35, contrast vs control
  ANOVA F-ratio: 8.26
  Kruskal-Wallis Test: 5.11
[2]; [9]
  ANOVA F-ratio: 10.47
  Kruskal-Wallis Test: 8.65
[2]; D41, contrast vs control
  ANOVA F-ratio: 11.82
  Kruskal-Wallis Test: 5.36
[2]; [10]
  ANOVA F-ratio: 12.64
  Kruskal-Wallis Test: 7.71
[2]; [11]
  Mean tumour volume: 92 mm^3
  Median tumour volume: 89 mm^3
[2]; Day 13
  Individual tumour volume: 144 mm3 and 98 mm3 (2×) and 90 mm3 and 76 mm3 and 73 mm3
[2]; Day 20
  Mean tumour volume: 111 mm^3
  Median tumour volume: 107 mm^3
  Individual tumour volume: 105 mm3 and 135 mm3 and 88 mm3 and 140 mm3 and 150 mm3 and 60 mm3
[2]; Day 24
  Mean tumour volume: 97 mm^3
  Median tumour volume: 93 mm^3
  Individual tumour volume: 158 mm3 and 180 mm3 and 0 mm3 and 102 mm3 and 114 mm3 and 68 mm3
[2]; Day 27
  Mean tumour volume: 144 mm^3
  Median tumour volume: 129 mm^3
  Individual tumour volume: 252 mm3 and 289 mm3 and 0 mm3 and 192 mm3 and 168 mm3 and 72 mm3
[2]; Day 31
  Mean tumour volume: 153 mm^3
  Median tumour volume: 162 mm^3
  Individual tumour volume: 184 mm3 and 404 mm3 and 0 mm3 and 204 mm3 and 198 mm3 and 68 mm3
[2]; Day 35
  Mean tumour volume: 310 mm^3
  Median tumour volume: 317 mm^3
  Individual tumour volume: 366 mm3 and 592 mm3 and 0 mm3 and 488 mm3 and 528 mm3 and 122 mm3
[2]; Day 41
  Mean tumour volume: 429 mm^3
  Median tumour volume: 467 mm^3
  Individual tumour volume: 560 mm3 and 844 mm3 and 0 mm3 and 540 mm3 and 634 mm3 and 293 mm3
[2]; Day 45
  Mean tumour volume: 577 mm^3
  Median tumour volume: 577 mm^3
  Individual tumour volume: 918 mm3 and 1256 mm3 and 0 mm3 and 624 mm3 and 731 mm3 and 392 mm3
[2]; Day 48
  Mean tumour volume: 664 mm^3
  Median tumour volume: 620 mm^3
  Individual tumour volume: 912 mm3 and 1672 mm3 and 0 mm3 and 551 mm3 and 833 mm3 and 381 mm3 and 689 mm3
[2]; Day 51
  Mean tumour volume: 832 mm^3
  Median tumour volume: 712 mm^3
  Individual tumour volume: 1485 mm3 and 2035 mm3 and 0 mm3 and 587 mm3 and 900 mm3 and 462 mm3 and 837 mm3
[2]; Day 55
  Individual tumour volume: 2080 mm3 and 0 mm3 and 990 mm3 and 1084 mm3 and 600 mm3 and 1309 mm3
[2]; Day 58
  Individual tumour volume: 0 mm3 and 1482 mm3 and 1350 mm3 and 842 mm3 and 1665 mm3
[2]; Day 62
  Individual tumour volume: 0 mm3 and 1080 mm3 and 1440 mm3 and 640 mm3 and 2057 mm3
[2]; Day 66
  Individual tumour volume: 0 mm3 and 1695 mm3 and 1512 mm3 and 666 mm3
[2]; Day 69
  Individual tumour volume: 0 mm3 and 1788 mm3 and 1496 mm3 and 950 mm3
[2]; Day 73
  Individual tumour volume: 0 mm3 and 1820 mm3 and 1559 mm3 and 1018 mm3
[2]; Day 76
  Individual tumour volume: 0 mm3 and 2296 mm3 and 1238 mm3 and 1140 mm3
[2]; Day 80
  Individual tumour volume: 0 mm3 and 1520 mm3 and 1254 mm3
[2]; Day 83
  Individual tumour volume: 0 mm3 and 1615 mm3 and 1463 mm3
[2]; paclitaxel study
  Anti-tumour activity (in words): significant anti-tumour activity; also recorded: anti-tumour effect greater than that of paclitaxel
[2]; relative to control group, Day 13 (before treatment)
  T/C ratio: 95%
[2]; relative to control group, Day 20
  T/C ratio: 57%
[2]; relative to control group, Day 24
  T/C ratio: 28%
[2]; relative to control group, Day 27
  T/C ratio: 25%
[2]; relative to control group, Day 31
  T/C ratio: 21%
[2]; relative to control group, Day 35
  T/C ratio: 27%
[2]; relative to control group, Day 41
  T/C ratio: 29%
[2]; relative to control, after D20 up to D41 (b191 prints D40)
  T/C ratio: less than 29%
[2]; relative to paclitaxel group, Day 13 (before treatment)
  T/C ratio: 98%
[2]; relative to paclitaxel group, Day 20
  T/C ratio: 47%
[2]; relative to paclitaxel group, Day 24
  T/C ratio: 35%
[2]; relative to paclitaxel group, Day 27
  T/C ratio: 38%
[2]; relative to paclitaxel group, Day 31
  T/C ratio: 39%
[2]; relative to paclitaxel group, Day 35
  T/C ratio: 32%
[3]; contrast vs control
  Survival parameter: logrank test chi-squared: 11.15
[3]; contrast vs paclitaxel 15 mg/kg q7d4
  Survival parameter: logrank test chi-squared: 12.36
[3]; group of 8 mice
  Survival parameter Mean: 70 days
  Survival parameter Median: 73 days
[3]; individual mice alive at day 83
  Observations: End of experiment TV: 1615 mm3 and 1463 mm3
[3]; individual mice alive at day 83, end of experiment
  Observations: End of experiment no
[3]; individual mice, experiment ended on day 83
  survival parameter: 51 Days and 55 Days and 62 Days and 69 Days and 76 Days and 83 Days (3×)
[3]; mouse, in vivo
  Statistical analysis based on the survival parameter (in words): significant anti-tumour activity; also recorded: significantly different from that of paclitaxel in monotherapy
